According to PubChem BioAssay (NCI):
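Test compounds were applied to cells in 96-well plates for 48 hours at 5 doses. Definition used: TGI = concentration required for complete inhibition of growth.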

Assays:
Experiment in all cases: NCI anticancer screen, dose series, 48 h
[1] = tested on: EKVX NSCLC
[2] = tested on: DMS 273 small cell lung
[3] = tested on: UO-31 renal
[4] = tested on: HT29 colon
[5] = tested on: RPMI-8226 leukemia
[6] = tested on: M19-MEL melanoma
[7] = tested on: ACHN renal
[8] = tested on: SK-MEL-28 melanoma
[9] = tested on: NCI-H522 lung
[10] = tested on: M14 melanoma
[11] = tested on: UACC-257 melanoma
[12] = tested on: HCT-15 colon
[13] = tested on: SNB-75 CNS
[14] = tested on: A549 NSCLC
[15] = tested on: SF-295 CNS
[16] = tested on: RXF-631 renal
[17] = tested on: U251 CNS
[18] = tested on: SF-539 CNS
[19] = tested on: DMS 114 small cell lung
[20] = tested on: LXFL 529 NSCLC
[21] = tested on: SK-OV-3 ovarian
[22] = tested on: MALME-3M melanoma
[23] = tested on: RXF 393 renal
[24] = tested on: HOP-92 NSCLC
[25] = tested on: HCC-2998 colon
[26] = tested on: CCRF-CEM leukemia
[27] = tested on: A498 renal
[28] = tested on: IGROV1 ovarian
[29] = tested on: SW-620 colon
[30] = tested on: NCI-H23 lung
[31] = tested on: LOX IMVI melanoma
[32] = tested on: NCI-H226 lung
[33] = tested on: SK-MEL-2 melanoma
[34] = tested on: NCI-H460 lung
[35] = tested on: TK-10 renal
[36] = tested on: COLO 205 colon
[37] = tested on: HOP-18 NSCLC
[38] = tested on: K-562 leukemia
[39] = tested on: SNB-78 CNS
[40] = tested on: OVCAR-5 ovarian
[41] = tested on: 786-0 renal
[42] = tested on: HL-60(TB) leukemia
[43] = tested on: KM12 colon
[44] = tested on: OVCAR-8 ovarian
[45] = tested on: CAKI-1 renal
[46] = tested on: SK-MEL-5 melanoma
[47] = tested on: HCT-116 colon
[48] = tested on: OVCAR-3 ovarian
[49] = tested on: KM20L2 colon
[50] = tested on: SF-268 CNS
[51] = tested on: SN12C renal
[52] = tested on: SNB-19 CNS
[53] = tested on: UACC-62 melanoma
[54] = tested on: OVCAR-4 ovarian
[55] = tested on: HOP-62 NSCLC
[56] = tested on: DLD-1 colon
[57] = tested on: SR leukemia
[58] = tested on: MOLT-4 leukemia

Measured: TGI

CCOC(=O)CNC1C(NC(C)=O)C(OC)OC2COC(c3ccccc3)OC21 (stereo not drawn)
> 100 µM: [1] | [2] | [3] | [4] | [5] | [6] | [7] | [8] | [9] | [10] | [11] | [12] | [13] | [14] | [15] | [16] | [17] | [18] | [19] | [20] | [21] | [22] | [23] | [24] | [25] | [26] | [27] | [28] | [29] | [30] | [31] | [32] | [33] | [34] | [35] | [36] | [37] | [38] | [39] | [40] | [41] | [42] | [43] | [44] | [45] | [46] | [47] | [48] | [49] | [50] | [51] | [52] | [53] | [54]

C/C(=N\NS(=O)(=O)c1ccc(C)cc1)c1c(O)cc(C)oc1=O
> 100 µM: [1] | [3] | [4] | [55] | [6] | [7] | [8] | [10] | [56] | [11] | [12] | [13] | [14] | [57] | [15] | [17] | [18] | [20] | [21] | [22] | [24] | [25] | [26] | [58] | [27] | [28] | [29] | [30] | [31] | [32] | [33] | [34] | [35] | [37] | [38] | [39] | [41] | [42] | [43] | [44] | [45] | [46] | [47] | [49] | [50] | [51] | [52] | [53] | [54]
